In this experiment the target is T1, human JAK2 (Homo sapiens, UniProt O60674).
T1 construct: JAK2 (a.a. 828-1132); His tag (N); made in house; host or cells: insect cells (baculovirus)
Nature of the experiment: In vitro JAK kinase assay (HTRF, phosphorylation of biotinylated peptide). It is filed as biochemical. Particulars: catalytic domain a.a. 828-1132, 30 μM ATP, 500 nM peptide, room temperature 1 hr; read-out: JAK-2 IC50. Put shortly:
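His-tagged human JAK2 catalytic domain (a.a. 828-1132), baculovirus/insect-cell expressed; phosphorylation of 500 nM biotinylated peptide at 30 μM ATP in 50 mM Tris pH 7.8, 100 mM NaCl, 5 mM DTT, 0.01% BSA. 1 h at room temperature, EDTA stop, HTRF read (Eu-Py20/SA-APC); IC50.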
On the technique in general: In TR-FRET formats the signal depends on donor and acceptor labels being close together.

The structures appear in SMILES notation.

T1 sequence (O60674 828-1132): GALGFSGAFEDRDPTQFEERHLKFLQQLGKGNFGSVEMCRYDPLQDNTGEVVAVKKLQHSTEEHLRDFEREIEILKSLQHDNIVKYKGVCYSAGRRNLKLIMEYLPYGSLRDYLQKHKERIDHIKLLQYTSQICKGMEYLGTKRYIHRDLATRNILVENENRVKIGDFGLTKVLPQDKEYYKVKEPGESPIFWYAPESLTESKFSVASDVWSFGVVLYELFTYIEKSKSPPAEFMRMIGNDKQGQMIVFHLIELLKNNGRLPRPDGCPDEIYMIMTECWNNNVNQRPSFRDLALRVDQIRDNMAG

In general, IC50 refers to the concentration at which inhibition is half-maximal. `CCN(CC)c1ccc(Nc2ncc(C)c(-c3cnn(C(CC#N)C4CCCC4)c3)n2)cc1` (racemic) [Example 79, 3-cyclopentyl-3-(4-(2-(4-(diethylamino)phenylamino)-5-methylpyrimidin-4-yl)-1H-pyrazol-1-yl)propanenitrile]: the IC50 was < 100 nM.
With `CN(C)C1CCN(C(=O)c2ccc(Nc3nccc(-c4cnn(C(CC#N)C5CC5)c4)n3)cc2)C1` (mixture of isomers) [Example 270, 3-cyclopropyl-3-(4-(2-(4-(3-(dimethylamino)pyrrolidine-1-carbonyl)phenylamino)pyrimidin-4-yl)-1H-pyrazol-1-yl)propanenitrile] the figure was < 100 nM; with `N#CCC1(n2cc(-c3ccnc(Nc4ccc(OCCN5CCCC5)cc4)n3)cn2)CC(C#N)C1` (single isomer, unassigned) [Example 307, 3-(cyanomethyl)-3-[4-(2-{[4-(2-pyrrolidin-1-ylethoxy)phenyl]amino}pyrimidin-4-yl)-1H-pyrazol-1-yl]cyclobutanecarbonitrile], < 100 nM.
With `N#CCC(CC1CCN(C(=O)c2ccc(F)cc2F)CC1)n1cc(-c2ccnc(Nc3ccc(-n4cccn4)cc3)n2)cn1` (racemic) [Example 6, 3-(4-(2-(4-(1H-pyrazol-1-yl)phenylamino)pyrimidin-4-yl)-1H-pyrazol-1-yl)-4-(1-(2,4-difluorobenzoyl)piperidin-4-yl)butanenitrile] the figure was < 100 nM; with `N#CCC(C1CCCC1)n1cc(-c2ccnc(Nc3cccc(C(=O)N4CCC4)c3)n2)cn1` (racemic) [Example 142, 3-(4-(2-(3-(azetidine-1-carbonyl)phenylamino)pyrimidin-4-yl)-1H-pyrazol-1-yl)-3-cyclopentylpropanenitrile], < 100 nM; with `CCS(=O)(=O)N1CC(CC#N)(n2cc(-c3ccnc(Nc4ccc(C(=O)N5CC[C@H](OC)C5)cc4)n3)cn2)C1` [Example 277, (S)-2-(1-(ethylsulfonyl)-3-(4-(2-(4-(3-methoxypyrrolidine-1-carbonyl)phenylamino)pyrimidin-4-yl)-1H-pyrazol-1-yl)azetidin-3-yl)acetonitrile], < 100 nM.
Then `CO[C@H]1CCN(C(=O)c2ccc(Nc3nccc(-c4cnn(C(CC#N)C5CC5)c4)n3)cc2)C1` (mixture of isomers) [Example 265, 3-cyclopropyl-3-(4-(2-(4-((S)-3-methoxypyrrolidine-1-carbonyl)phenylamino)pyrimidin-4-yl)-1H-pyrazol-1-yl)propanenitrile], with < 100 nM; and `CCS(=O)(=O)Nc1cccc(Nc2nccc(-c3cnn(C(CC#N)C4CCCC4)c3)n2)c1` (racemic) [Example 114, N-(3-(4-(1-(2-cyano-1-cyclopentylethyl)-1H-pyrazol-4-yl)pyrimidin-2-ylamino)phenyl)ethanesulfonamide], with < 100 nM; and `COc1cnc(Nc2ccc(C(=O)N3CCCC3)cc2)nc1-c1cnn(C(CC#N)C2CCCC2)c1` (racemic) [Example 303, 3-cyclopentyl-3-(4-(5-methoxy-2-(4-(pyrrolidine-1-carbonyl)phenylamino)pyrimidin-4-yl)-1H-pyrazol-1-yl)propanenitrile], with < 100 nM.
Consider `Cn1ccc(S(=O)(=O)Nc2cccc(Nc3nccc(-c4cnn(C(CC#N)C5CCCC5)c4)n3)c2)n1` (racemic) [Example 201, N-(3-(4-(1-(2-cyano-1-cyclopentylethyl)-1H-pyrazol-4-yl)pyrimidin-2-ylamino)phenyl)-1-methyl-1H-pyrazole-3-sulfonamide], for which the IC50 is < 100 nM.
Then `COc1cnc(Nc2cccc(C(=O)N3CCC(OC)CC3)c2)nc1-c1cnn(C(CC#N)C2CC2)c1` (racemic) [Example 330, 3-cyclopropyl-3-{4-[5-methoxy-2-({3-[(4-methoxypiperidin-1-yl)carbonyl]phenyl}amino)pyrimidin-4-yl]-1H-pyrazol-1-yl}propanenitrile], with < 100 nM; and `N#CCC1(n2cc(-c3ccnc(Nc4ccc(S(=O)(=O)N5CCOCC5)cc4)n3)cn2)CC(C#N)C1` (single isomer, unassigned) [Example 344, 3-(cyanomethyl)-3-[4-(2-{[4-(morpholin-4-ylsulfonyl)phenyl]amino}pyrimidin-4-yl)-1H-pyrazol-1-yl]cyclobutanecarbonitrile], with < 100 nM; and `CS(=O)(=O)N1CCC(CC(CC#N)n2cc(-c3ccnc(Nc4ccc(N5CCOCC5=O)cc4)n3)cn2)CC1` (racemic) [Example 95, 4-(1-(methylsulfonyl)piperidin-4-yl)-3-(4-(2-(4-(3-oxomorpholino)phenylamino)pyrimidin-4-yl)-1H-pyrazol-1-yl)butanenitrile], with < 100 nM.
Then `CS(=O)(=O)N1CCN(c2ccc(Nc3nccc(-c4cnn(C(CC#N)C5CCCC5)c4)n3)cc2)CC1` (racemic) [Example 54, 3-cyclopentyl-3-(4-(2-(4-(4-(methylsulfonyl)piperazin-1-yl)phenylamino)pyrimidin-4-yl)-1H-pyrazol-1-yl)propanenitrile], with < 100 nM.
With `N#CCC1(n2cc(-c3ccnc(Nc4ccc(C(=O)N5CCCC5)cc4)n3)cn2)CC(C#N)C1` (single isomer, unassigned) [Example 288, 3-(cyanomethyl)-3-(4-(2-(4-(pyrrolidine-1-carbonyl)phenylamino)pyrimidin-4-yl)-1H-pyrazol-1-yl)cyclobutanecarbonitrile] the figure was < 100 nM; with `CCS(=O)(=O)N1CC(CC#N)(n2cc(-c3ccnc(Nc4ccc(C(=O)N5CC[C@@H](NC(C)=O)C5)cc4)n3)cn2)C1` [Example 280, (R)—N-(1-(4-(4-(1-(3-(cyanomethyl)-1-(ethylsulfonyl)azetidin-3-yl)-1H-pyrazol-4-yl)pyrimidin-2-ylamino)benzoyl)pyrrolidin-3-yl)acetamide], < 100 nM; with `CO[C@H]1CCN(C(=O)c2ccc(Nc3nccc(-c4cnn(C(CC#N)C5CCOCC5)c4)n3)cc2)C1` (mixture of isomers) [Example 316, 3-(4-{2-[(4-{[(3S)-3-methoxypyrrolidin-1-yl]carbonyl}phenyl)amino]pyrimidin-4-yl}-1H-pyrazol-1-yl)-3-(tetrahydro-2H-pyran-4-yl)propanenitrile], < 100 nM.

Values taken from patent publication US8309718B2, “4-pyrazolyl-N-arylpyrimidin-2-amines and 4-pyrazolyl-N-heteroarylpyrimidin-2-amines as janus kinase inhibitors” (Incyte Corporation, priority 2007, dated 2012).
